# Assay results reported in ChEMBL document CHEMBL1139113, “Inhibition of the mitochondrial F1F0-ATPase by ligands of the peripheral benzodiazepine receptor” (Bioorg Med Chem Lett, 2007).
# pEC50: −log10 of the molar value.
# Tests used:
# [1] = Inhibition of F1F0-ATPase synthesis activity in bovine submitochondrial particles; parameters: species or system Bos taurus
# [2] = Inhibition of F1F0-ATPase hydrolysis activity in bovine submitochondrial particles; parameters: species or system Bos taurus
# Ramos [3] = assay: Induction of reactive oxygen species response in Ramos cells after 1 hr; assay type: functional, cell-based; details: Homo sapiens
# Jurkat [4] = assay: Induction of cell death in Jurkat cells after 24 hrs; assay type: functional, cell-based; details: Homo sapiens
# Jurkat [5] = assay: Induction of reactive oxygen species response in Jurkat cells after 1 hr; assay type: functional, cell-based; details: Homo sapiens
# Ramos [6] = assay: Induction of cell death in Ramos cells after 24 hrs; assay type: functional, cell-based; details: Homo sapiens
# Jurkat [7] = assay: Induction of reactive oxygen species response in Jurkat cells at 75 uM in presence of Mn(III)tetrakis(4-benzoic acid)porphyrin after 1 hr; assay type: functional, Homo sapiens
# Jurkat [8] = assay: Induction of cell death in Jurkat cells at 75 uM in presence of Vitamin E after 24 hrs; assay type: functional, Homo sapiens
# Jurkat [9] = assay: Induction of cell death in Jurkat cells at 75 uM after 24 hrs; assay type: functional, Homo sapiens
# Jurkat [10] = assay: Induction of reactive oxygen species response in Jurkat cells at 75 uM after 1 hr; assay type: functional, Homo sapiens
# Jurkat [11] = assay: Induction of reactive oxygen species response in Jurkat cells at 75 uM in presence of Vitamin E after 1 hr; assay type: functional, Homo sapiens
# Jurkat [12] = assay: Induction of cell death in Jurkat cells at 75 uM in presence of Mn(III)tetrakis(4-benzoic acid)porphyrin after 24 hrs; assay type: functional, Homo sapiens
SMILES,pEC50 [1],pEC50 [2],pEC50 (Ramos [3]),pEC50 (Jurkat [4]),pEC50 (Jurkat [5]),pEC50 (Ramos [6]),Activity (Jurkat [7]) [%],Activity (Jurkat [8]) [%],Activity (Jurkat [9]) [%],Activity (Jurkat [10]) [%],Activity (Jurkat [11]) [%],Activity (Jurkat [12]) [%]
CN1C(=O)C(Cc2ccc3ccccc3c2)N=C(c2ccc(O)cc2)c2cc(Cl)ccc21 (stereo unspecified),5.26,5.05,5.14,5.22,5.00,5.20,–,–,–,–,–,–
O=C1CN=C(c2ccccc2Cl)c2cc([N+](=O)[O-])ccc2N1 [CLONAZEPAM],3.92,3.62,< 3.52,< 3.52,< 3.52,< 3.52,–,–,–,–,–,–
CN1C(=O)CN=C(c2ccccc2)c2cc(Cl)ccc21 [DIAZEPAM],3.68,< 3.52,3.77,3.77,3.70,3.60,–,–,–,–,–,–
CCC(C)N(C)C(=O)c1cc2ccccc2c(-c2ccccc2Cl)n1 (stereo unspecified) [PK-11195],4.48,3.64,4.00,4.12,4.25,4.05,39.7,55.9,85.5,67.9,33.9,68.9
CN1C(=O)CN=C(c2ccc(Cl)cc2)c2cc(Cl)ccc21 [RO-54864],3.68,< 3.52,3.74,< 3.52,3.64,3.89,–,–,–,–,–,–
